Measured values reported in the supplement of paper PMC10307832.

Tests used:
Test in all cases: relative viability (nuclei count vs DMSO), 5 days (fraction); higher = more cells survive
[1] = compound: Cc1ccc(C(=O)Nc2ccc(CN3CCN(C)CC3)c(C(F)(F)F)c2)cc1C#Cc1cnc2cccnn12 [Ponatinib] + Cc1nc(NC(=O)N2CCC[C@H]2C(N)=O)sc1-c1ccnc(C(C)(C)C(F)(F)F)c1 [Alpelisib] (partner 2 µM)
How it was run: (§1)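 Nuclei were stained with Hoechst during a one-step fixation (final 0.05% Triton X-100, 1% formaldehyde, 1 ug/ml Hoechst) carried out 5 days after dosing, then counted on 4× images. The cells, lung cancer lines in 1536-well plates, had been dosed by pin tool the day after seeding with one drug alone or a fixed anchor-drug dose plus five library-drug doses (not always all listed) in √10 steps. Relative viability is the nuclei count in treated wells divided by that in vehicle wells, and each value is the median of duplicate plates.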

[2] = compound: Cc1ccc(Nc2nccc(N(C)c3ccc4c(C)n(C)nc4c3)n2)cc1S(N)(=O)=O [Pazopanib] + CC(C)C[C@H](NC(=O)[C@H](Cc1ccccc1)NC(=O)c1cnccn1)B(O)O [Bortezomib] (partner 0.002 µM)
How it was run: as §1

[3] = compound: Cc1ccc(C(=O)Nc2ccc(CN3CCN(C)CC3)c(C(F)(F)F)c2)cc1C#Cc1cnc2cccnn12 [Ponatinib]
How it was run: (§2)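 In 1536-well plates, lung cancer cell lines rested overnight at 37 °C before five library-drug doses (not always all listed), √10 apart, were pinned onto vehicle-anchored plates. Nuclei were counted with MetaXpress from 4× Hoechst images taken after 5 days without medium change. Viability compares treated-well with vehicle-well nuclei as a median over plates, and plates needed control CV below 25% plus at least one doubling to pass.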

[4] = compound: Cc1ccc(Nc2nccc(N(C)c3ccc4c(C)n(C)nc4c3)n2)cc1S(N)(=O)=O [Pazopanib]
How it was run: as §2

Row | Cell Line | relative viability ([1]; first compound 0.002 µM) | relative viability ([1]; first compound 0.006325 µM) | relative viability ([1]; first compound 0.06325 µM) | relative viability ([1]; first compound 0.2 µM) | relative viability ([2]; first compound 0.01 µM) | relative viability ([2]; first compound 0.03162 µM) | relative viability ([2]; first compound 0.1 µM) | relative viability ([2]; first compound 0.3162 µM) | relative viability ([2]; first compound 1 µM) | relative viability ([3]; 0.002 µM) | relative viability ([3]; 0.006325 µM) | relative viability ([3]; 0.06325 µM) | relative viability ([3]; 0.2 µM) | relative viability ([4]; 0.01 µM) | relative viability ([4]; 0.03162 µM) | relative viability ([4]; 0.1 µM) | relative viability ([4]; 0.3162 µM) | relative viability ([4]; 1 µM)
1 | NCI-H1975 | 0.618 | 0.773 | 0.92 | 0.675 | 0.356 | 0.346 | 0.461 | 0.464 | 0.448 | 0.831 | 0.918 | 0.948 | 0.844 | 0.889 | 0.895 | 0.993 | 0.944 | 1.03
2 | CAL-12T | 1.03 | 1.12 | 1.46 | 0.979 | 1.05 | 1.01 | 0.843 | 1.04 | 1.35 | 0.929 | 0.951 | 1.15 | 0.97 | 1.15 | 0.99 | 0.986 | 1.02 | 1.13
3 | NCI-H1623 |  |  |  |  |  |  |  |  |  | 0.991 | 1.05 | 1.01 | 0.969 | 0.964 | 0.909 | 0.885 | 1.06 | 0.929
4 | HCC-44 | 0.802 | 0.897 | 0.92 | 0.794 | 0.942 | 0.877 | 0.891 | 0.899 | 0.989 | 0.908 | 0.929 | 0.942 | 0.958 | 0.886 | 0.929 | 0.998 | 0.983 | 1.02
5 | EKVX | 0.805 | 0.936 | 1.15 | 0.898 | 1.09 | 1.02 | 1 | 0.996 | 1.02 | 0.899 | 1.06 | 1.24 | 1.06 | 0.902 | 0.989 | 0.964 | 1.06 | 1.03
6 | NCI-H1651 | 0.867 | 1.06 | 1.07 | 0.991 | 0.753 | 0.954 | 0.965 | 0.97 | 0.916 | 0.982 | 1.02 | 1.08 | 0.929 | 0.917 | 1 | 1.01 | 0.956 | 1.01
7 | NCI-H2170 | 0.804 | 0.843 | 0.892 | 0.811 |  |  |  |  |  | 0.927 | 0.969 | 1 | 0.917 | 0.828 | 1.02 | 0.948 | 0.899 | 0.995
8 | NCI-H1703 | 0.299 | 0.355 | 0.225 | 0.186 | 0.26 | 0.262 | 0.233 | 0.267 | 0.214 | 0.821 | 0.83 | 0.466 | 0.333 | 0.744 | 0.735 | 0.562 | 0.353 | 0.331
9 | SK-MES-1 | 0.981 | 0.949 | 1.32 | 1.05 |  |  |  |  |  | 0.944 | 1.06 | 1.15 | 1 | 0.946 | 0.987 | 1.04 | 1.05 | 1.05
10 | NCI-H1944 | 0.824 | 0.943 | 1.1 | 0.954 |  |  |  |  |  | 0.828 | 1.01 | 0.957 | 1 | 0.739 | 0.965 | 1.06 | 0.981 | 1.01
11 | ChaGo-K-1 |  |  |  |  | 1.12 | 1.1 | 0.952 | 0.91 | 0.951 | 0.872 | 0.988 | 1 | 0.88 | 0.927 | 1.01 | 1.04 | 0.99 | 0.978
12 | NCI-H2342 |  |  |  |  |  |  |  |  |  | 0.958 | 0.946 | 1.01 | 0.999 | 0.687 | 0.945 | 0.957 | 0.883 | 0.852
13 | NCI-H1650 |  |  |  |  | 0.204 | 0.212 | 0.235 | 0.191 | 0.21 | 0.915 | 1.05 | 1.22 | 0.891 | 1.05 | 1.02 | 0.954 | 1.12 | 1.16
14 | SW 900 |  |  |  |  |  |  |  |  |  | 0.817 | 0.783 | 0.889 | 0.794 | 0.796 | 0.902 | 0.762 | 1.12 | 1.2
15 | NCI-H1395 |  | 1.03 | 1.09 | 0.804 |  |  |  |  |  | 0.675 | 0.934 | 0.91 | 0.708 | 0.848 | 1.03 | 0.825 | 1.1 | 1.2
16 | NCI-H1648 |  |  |  |  |  |  |  |  |  | 0.862 | 0.836 | 0.671 | 0.799 | 0.582 | 0.869 | 0.842 | 0.903 | 0.837
17 | NCI-H522 |  |  |  |  |  |  |  |  |  | 0.816 | 1 | 0.818 | 0.847 | 0.723 | 0.978 | 0.864 | 0.983 | 1.12
18 | LK-2 | 1.12 | 1.05 | 1.17 | 0.668 |  |  |  |  |  | 0.872 | 1 | 0.816 | 0.73 | 0.891 | 0.965 | 0.943 | 0.928 | 0.858
19 | NCI-H1793 | 0.677 | 0.946 | 0.907 | 0.729 |  |  |  |  |  | 0.959 | 0.914 | 0.89 | 0.715 |  | 0.875 | 0.856 | 0.961 | 1.16
20 | A549 | 0.772 | 0.931 | 0.949 | 0.634 |  |  |  |  |  | 0.809 | 0.975 | 1.02 | 0.917 | 0.935 | 0.99 | 1.04 | 1.01 | 1.17
21 | NCI-H358 | 0.886 | 0.95 | 0.942 | 0.772 |  |  |  |  |  | 0.904 | 1.04 | 1.01 | 0.9 | 1.04 | 0.927 | 0.933 | 0.991 | 1.15
